Measurements: patent publication US20250304582A1, “Bicyclic Ureas As Kinase Inhibitors” (Incyte Corporation, priority 2024, published 2025)

Legend:
[1] = molecular target: T1, catalytic domain (JH1, amino acids 826-1132) of human JAK2 (Homo sapiens, UniProt O60674); assay: JAK2 LanthaScreen JH1 Binding Assay; conditions: 50 nM fluorescent JAK2-JH1 tracer, 2 hours at 25° C.; read-out: JH1 BIND (EX. A)
T1 construct: catalytic domain (JH1, amino acids 826-1132) of human JAK2; FLAG (N); purchased Carna Biosciences 08-445-20N; host or cells: baculovirus expression system
T1 sequence (O60674 826-1132): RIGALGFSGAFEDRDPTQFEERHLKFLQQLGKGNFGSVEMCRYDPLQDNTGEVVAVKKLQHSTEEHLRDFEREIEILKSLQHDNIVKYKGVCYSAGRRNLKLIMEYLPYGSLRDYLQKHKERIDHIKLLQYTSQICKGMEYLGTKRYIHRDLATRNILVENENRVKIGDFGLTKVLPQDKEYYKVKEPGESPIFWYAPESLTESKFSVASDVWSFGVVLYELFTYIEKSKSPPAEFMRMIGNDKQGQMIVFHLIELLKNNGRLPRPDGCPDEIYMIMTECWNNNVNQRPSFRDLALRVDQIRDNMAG
Method in brief: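 FLAG-tagged biotinylated JAK2 JH1 (1.5 nM) was incubated 2 h at 25° C with compound, 50 nM fluorescent tracer and 0.5 nM Streptavidin-Tb in Tris pH 7.5 buffer. Tracer displacement read by TR-FRET; nonspecific binding defined with 2 mM ATP. IC50 from four-parameter fit.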

[2] = molecular target: T2, catalytic domain (JH1, amino acids 808-1132) of human JAK2 (Homo sapiens, UniProt O60674); assay: JAK2 HTRF Enzyme Activity Assay; assay type: biochemical; conditions: ATP (30 μM or 1 mM; not stated which for the table), 60 minutes at 25° C.; read-out: JAK2 HTRF (Ex. D)
T2 construct: catalytic domain (JH1, amino acids 808-1132) of human JAK2; His (N); purchased BPS Bioscience 40450; host or cells: baculovirus expression system
T2 sequence (O60674 808-1132): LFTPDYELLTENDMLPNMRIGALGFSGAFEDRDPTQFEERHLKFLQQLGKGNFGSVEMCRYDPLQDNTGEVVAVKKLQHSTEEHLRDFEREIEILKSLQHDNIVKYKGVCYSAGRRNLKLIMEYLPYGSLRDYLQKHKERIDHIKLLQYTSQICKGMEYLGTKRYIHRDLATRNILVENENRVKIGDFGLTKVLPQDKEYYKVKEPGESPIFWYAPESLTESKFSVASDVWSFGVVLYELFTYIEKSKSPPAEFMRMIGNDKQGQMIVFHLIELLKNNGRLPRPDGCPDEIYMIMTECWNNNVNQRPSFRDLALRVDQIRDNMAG
Method in brief: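 N-terminal His-tagged, baculovirus-expressed JH1 domain (0.015 nM) reacts 60 min at 25 °C with 500 nM biotinylated peptide and 30 μM or 1 mM ATP in Tris pH 7.5/10 mM MgCl2. Phosphorylation is detected by HTRF with Eu-anti-phosphotyrosine (PY20) and streptavidin-APC after EDTA stop. IC50 comes from four-parameter fits.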

[3] = molecular target: T3, pseudo-kinase domain (JH2, amino-acids 536-812) of human Wild Type JAK2 (Homo sapiens, UniProt O60674, F794H/W659A/W777A); assay: JAK2 LanthaScreen JH2-WT Binding Assay; conditions: 50 nM Fluorescent JAK2-JH2 Tracer, 1 hour at 25° C.; read-out: JH2 BIND WT (EX. B)
T3 construct: JH2, amino-acids 536-812 with 3 surface mutations W659A, W777A, F794H; His (C); purchased BPS Bioscience 79463; host or cells: baculovirus expression system
T3 sequence (O60674 536-812 W659A/W777A/F794H): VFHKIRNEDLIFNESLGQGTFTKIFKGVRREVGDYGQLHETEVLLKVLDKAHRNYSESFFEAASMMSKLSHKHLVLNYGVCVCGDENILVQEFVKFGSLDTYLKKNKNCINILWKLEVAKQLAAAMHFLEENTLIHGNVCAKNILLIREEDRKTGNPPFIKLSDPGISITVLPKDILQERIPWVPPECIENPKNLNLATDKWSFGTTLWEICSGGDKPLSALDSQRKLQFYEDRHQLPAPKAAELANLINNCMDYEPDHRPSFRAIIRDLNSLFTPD
Method in brief: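 JH2 domain (0.145 nM; His-Avi-tagged, biotinylated, baculovirus-expressed) incubated 1 h at 25° C. with compounds, 50 nM fluorescent JH2 tracer and 0.25 nM streptavidin-Tb in pH 7.5 Tris buffer with MgCl2, EGTA, DTT. Non-specific binding defined with 2 mM ATP. TR-FRET tracer displacement read; IC50 from four-parameter fit.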

[4] = molecular target: T4, pseudo-kinase domain (JH2, amino-acids 536-812) of human V617F mutant JAK2 (Homo sapiens, UniProt O60674, F794H/V617F/W659A/W777A); assay: JAK2 LanthaScreen JH2-V617F Binding Assay; conditions: 50 nM Fluorescent JAK2-JH2 Tracer, 1 hour at 25° C.; read-out: JH2 BIND V617F (Ex. C)
T4 construct: JH2, amino-acids 536-812 with 3 surface mutations W659A, W777A, F794H; His (C); purchased BPS Bioscience 79498; host or cells: baculovirus expression system
T4 sequence (O60674 536-812 V617F/W659A/W777A/F794H): as the sequence (O60674 536-812 W659A/W777A/F794H) above, with V82F counted along it
Method in brief: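 Biotinylated His-Avi-tagged JH2 construct (536-812, W659A/W777A/F794H) at 0.26 nM, with 50 nM fluorescent JH2 tracer and 0.25 nM streptavidin-Tb, in pH 7.5 Tris/MgCl2 buffer; 1 h at 25° C. Non-specific binding defined with 2 mM ATP. IC50 derived from TR-FRET signal by four-parameter dose-response fit.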

Compound | IC50 [1] [nM] | IC50 [2] [nM] | IC50 [3] [nM] | IC50 [4] [nM]
[2H]C([2H])([2H])n1c(=O)n([C@@H]2CC[C@@H](NC(=O)OC)C2)c2cc(Nc3ccc4cc(F)cc(C(F)(F)F)c4n3)ncc21 [Example 27, Methyl ((1R,3R)-3-(6-((6-fluoro-8-(trifluoromethyl)quinolin-2-yl)amino)-3-(methyl-d3)-2-oxo-2,3-dihydro-1H-imidazo[4,5-c]pyridin-1-yl)cyclopentyl)carbamate] | > 1000 | > 1000 | ≤ 10 | ≤ 10
[2H]C([2H])([2H])n1c(=O)n([C@@H]2CC[C@@H](NC(=O)OC)C2)c2cc(Nc3ccc4cncc(C)c4n3)ncc21 [Example 28, Methyl ((1R,3R)-3-(3-(methyl-d3)-6-((8-methyl-1,6-naphthyridin-2-yl)amino)-2-oxo-2,3-dihydro-1H-imidazo[4,5-c]pyridin-1-yl)cyclopentyl)carbamate] | > 1000 | > 1000 | ≤ 10 | ≤ 10
[2H]C([2H])([2H])n1c(=O)n([C@@H]2CC[C@@H](NC(=O)OC)C2)c2cc(Nc3cc(C(C)(C)O)c4nccc(C)c4n3)ncc21 [Example 29, Methyl ((1R,3R)-3-(6-((4-(2-hydroxypropan-2-yl)-8-methyl-1,5-naphthyridin-2-yl)amino)-3-(methyl-d3)-2-oxo-2,3-dihydro-1H-imidazo[4,5-c]pyridin-1-yl)cyclopentyl)carbamate] | > 1000 | > 1000 | ≤ 10 | ≤ 10
[2H]C([2H])([2H])n1c(=O)n([C@@H]2CC[C@@H](NC(=O)OC)C2)c2cc(Nc3ccc4ncc(C(C)C(F)(F)F)n4n3)ncc21 (stereo partly drawn) [Example 30, Methyl ((1R,3R)-3-(3-(methyl-d3)-2-oxo-6-((3-(1,1,1-trifluoropropan-2-yl)imidazo[1,2-b]pyridazin-6-yl)amino)-2,3-dihydro-1H-imidazo[4,5-c]pyridin-1-yl)cyclopentyl)carbamate] | > 1000 | > 1000 | ≤ 10 | ≤ 10
[2H]C([2H])([2H])n1c(=O)n([C@@H]2CC[C@@H](NC(=O)OC)C2)c2cc(Nc3ccc4ncc(C(F)(F)F)n4n3)ncc21 [Example 31, Methyl ((1R,3R)-3-(3-(methyl-d3)-2-oxo-6-((3-(trifluoromethyl)imidazo[1,2-b]pyridazin-6-yl)amino)-2,3-dihydro-1H-imidazo[4,5-c]pyridin-1-yl)cyclopentyl)carbamate] | > 1000 | > 1000 | ≤ 10 | ≤ 10
[2H]C([2H])([2H])n1c(=O)n([C@@H]2CC[C@@H](NC(=O)OC)C2)c2cc(Nc3ccc4cccc([N+](=O)[O-])c4n3)ncc21 [Example 35, Methyl ((1R,3R)-3-(3-(methyl-d3)-6-((8-nitroquinolin-2-yl)amino)-2-oxo-2,3-dihydro-1H-imidazo[4,5-c]pyridin-1-yl)cyclopentyl)carbamate] | > 1000 | > 1000 | ≤ 10 | ≤ 10
[2H]C([2H])([2H])n1c(=O)n([C@@H]2CC[C@@H](NC(=O)OC)C2)c2cc(Nc3ccc4nccc(C#N)c4n3)ncc21 [Example 36, Methyl ((1R,3R)-3-(6-((8-cyano-1,5-naphthyridin-2-yl)amino)-3-(methyl-d3)-2-oxo-2,3-dihydro-1H-imidazo[4,5-c]pyridin-1-yl)cyclopentyl)carbamate] | > 1000 | > 1000 | ≤ 10 | ≤ 10
[2H]C([2H])([2H])n1c(=O)n([C@@H]2CC[C@@H](NC(=O)OC)C2)c2cc(Nc3cnc4cccc(C#N)c4n3)ncc21 [Example 37, Methyl ((1R,3R)-3-(6-((8-cyanoquinoxalin-2-yl)amino)-3-(methyl-d3)-2-oxo-2,3-dihydro-1H-imidazo[4,5-c]pyridin-1-yl)cyclopentyl)carbamate] | 100 to 500 | 100 to 500 | ≤ 10 | 10 to 100
COC(=O)N[C@@H]1CC[C@@H](n2c(=O)n(C)c3cnc(Nc4ccc5cccc(C(F)F)c5n4)cc32)C1 [Example 38, Methyl ((1R,3R)-3-(6-((8-(difluoromethyl)quinolin-2-yl)amino)-3-methyl-2-oxo-2,3-dihydro-1H-imidazo[4,5-c]pyridin-1-yl)cyclopentyl)carbamate] | > 1000 | > 1000 | ≤ 10 | ≤ 10
COC(=O)N[C@@H]1CC[C@@H](n2c(=O)n(C)c3cnc(Nc4ccc5cccc(C)c5n4)cc32)C1 [Example 39, Methyl ((1R,3R)-3-(3-methyl-6-((8-methylquinolin-2-yl)amino)-2-oxo-2,3-dihydro-1H-imidazo[4,5-c]pyridin-1-yl)cyclopentyl)carbamate] | > 1000 | > 1000 | ≤ 10 | 10 to 100
COC(=O)N[C@H]1CC[C@H](n2c(=O)n(C)c3cnc(Nc4ccc5cccc(Cl)c5n4)cc32)C1 [Example 40, Methyl ((1S,3S)-3-(6-((8-chloroquinolin-2-yl)amino)-3-methyl-2-oxo-2,3-dihydro-1H-imidazo[4,5-c]pyridin-1-yl)cyclopentyl)carbamate] | > 1000 | > 1000 | ≤ 10 | 10 to 100
COC(=O)N[C@@H]1CC[C@@H](n2c(=O)n(C)c3cnc(Nc4ccc5cccc(C(F)(F)F)c5n4)cc32)C1 [Example 41, Methyl ((1R,3R)-3-(3-methyl-2-oxo-6-((8-(trifluoromethyl)quinolin-2-yl)amino)-2,3-dihydro-1H-imidazo[4,5-c]pyridin-1-yl)cyclopentyl)carbamate] | > 1000 | > 1000 | ≤ 10 | ≤ 10
COC(=O)N[C@@H]1CC[C@@H](n2c(=O)n(C)c3cnc(Nc4ccc5ncc(C#N)n5n4)cc32)C1 [Example 42, Methyl ((1R,3R)-3-(6-((3-cyanoimidazo[1,2-b]pyridazin-6-yl)amino)-3-methyl-2-oxo-2,3-dihydro-1H-imidazo[4,5-c]pyridin-1-yl)cyclopentyl)carbamate] | > 1000 | > 1000 | ≤ 10 | ≤ 10
COC(=O)N[C@@H]1CC[C@@H](n2c(=O)n(C)c3cnc(Nc4ccc5cccc(C#N)c5n4)cc32)C1 [Example 43, Methyl ((1R,3R)-3-(6-((8-cyanoquinolin-2-yl)amino)-3-methyl-2-oxo-2,3-dihydro-1H-imidazo[4,5-c]pyridin-1-yl)cyclopentyl)carbamate] | > 1000 | > 1000 | ≤ 10 | ≤ 10
COC(=O)N[C@@H]1CC[C@@H](n2c(=O)n(C)c3cnc(Nc4ccc5ccc(C#N)cc5n4)cc32)C1 [Example 44, Methyl ((1R,3R)-3-(6-((7-cyanoquinolin-2-yl)amino)-3-methyl-2-oxo-2,3-dihydro-1H-imidazo[4,5-c]pyridin-1-yl)cyclopentyl)carbamate] | > 1000 | > 1000 | 100 to 500 | 100 to 500
COC(=O)N[C@@H]1CC[C@@H](n2c(=O)n(C)c3cnc(Nc4ccc5cc(C#N)ccc5n4)cc32)C1 [Example 45, Methyl ((1R,3R)-3-(6-((6-cyanoquinolin-2-yl)amino)-3-methyl-2-oxo-2,3-dihydro-1H-imidazo[4,5-c]pyridin-1-yl)cyclopentyl)carbamate] | > 1000 | > 1000 | 10 to 100 | 100 to 500
[2H]C([2H])([2H])n1c(=O)n([C@@H]2CC[C@@H](NC(=O)OC)C2)c2cc(Nc3ccc4c(C(C)(C)O)ccc(C(F)(F)F)c4n3)ncc21 [Example 47, Methyl ((1R,3R)-3-(6-((5-(2-hydroxypropan-2-yl)-8-(trifluoromethyl)quinolin-2-yl)amino)-3-(methyl-d3)-2-oxo-2,3-dihydro-1H-imidazo[4,5-c]pyridin-1-yl)cyclopentyl)carbamate] | > 1000 | > 1000 | ≤ 10 | ≤ 10
